The test system of data set [1] is multiple myeloma lines resistant to dexamethasone (MM 1.R). The conditions noted are these: cells in culture, XTT or MTS (FIG. 6). (Tetrazolium assays rely on reduction of a dye to a coloured formazan, in cell work by metabolically active cells.)
Procedure: The cells used were: • multiple myeloma cells (MM1.S) • multiple myeloma lines resistant to dexamethasone (MM 1.R) • a multiple myeloma line overexpressing Bcl-2
For established cell lines, cells were plated in 96 well plates and allowed to grow for 24 h prior to addition of drugs. Cells were incubated with drug for indicated times and cell viability was measured by the XTT or MTS assay using an automated plate reader.
Data set [2] deals with colon CX-1. The conditions noted are these: mice bearing human xenografted tumors; cited from earlier work. A general note: Xenograft models place foreign cells or tissue in a host animal.
The test system of data set [3] is multiple myeloma line overexpressing Bcl-2. The data set can be described thus: XTT or MTS cell viability assay, Bcl-2 overexpressing MM line. Format: cell-based. The conditions noted are these: cells in culture, XTT or MTS (FIG. 7). As to the method:
Aplidine was tested against various established cells in culture.

In data set [4] the test system is BMSCs. The conditions noted are these: at the aplidine doses used in the co-culture.
Procedure: (§2) We therefore investigated whether aplidine can also overcome the molecular sequelae of the interaction of BMSCs with MM cells and achieve anti-MM activity in this context. We thus performed in vitro co-culture assays of MM cells with BMSCs as previously described: BMSCs were grown on 24-well plates to confluency. […] Flow cytometric analysis was performed to detect the CD138+ population of viable MM cells and the effect of aplidine on MM cell viability was expressed as % of viable cell numbers in comparison to the respective vehicle-treated cultures.
Data set [5] concerns VEGF secretion. Description: Quantification of VEGF secretion by ELISA. The conditions noted are these: 20 nM. Format: cell-based, human. From the text:
MM cell adhesion to BMSCs induces increased secretion of angiogenic cytokines, such as vascular endothelial growth factor (VEGF), an event deemed of major significance for the recruitment of new blood vessels at the sites of MM cells in the BM milieu. […] The supernatants were collected and assayed for VEGF concentration by enzyme-linked immunosorbent assay (ELISA) using a commercially available kit (VEGF ELISA kit; R&D Systems), according to the instructions of the manufacturer.

In data set [6] the test system is gastric, prostate and Burkitts lymphoma human xenografts. Particulars: subcutaneous implanted gastric; cited from earlier work.
The subject of data set [7] is primary MM tumor cells co-cultured with BMSCs. The data set can be described thus: Co-culture of MM cells with bone marrow stromal cells, flow cytometry of viable CD138+ cells. Format: cell-based, human. Particulars: 48 hours, flow-cytometric determination of cell death (FIG. 3). In general terms: A flow cytometer gives signals particle by particle.
Procedure: as §2
The test system of data set [8] is MM-1S human MM cells stably transfected with myristoylated Akt. The data set can be described thus: MTT survival assay, myrAkt-transfected MM-1S cells. Format: cell-based. The conditions noted are these: myrAkt-transfected MM-1S cells (FIG. 1). As to the method:
(§1) Cell survival was examined using the 3-(4,5-dimethylthiazol-2-yl)-2,5-diphenyltetrazolium bromide (MTT; Sigma Chemical, St Louis, Mo.) colorimetric assay, as previously described (Mitsiades C. S. et al. Blood. 2001, 98, 795-804; Mitsiades N. et al. Proc Natl Acad Sci USA. 2002, 99, 14374-14379; Mitsiades N. et al. Blood. 2003, 101, 2377-2380). Briefly, cells were plated in 48-well plates at 70% to 80% confluence in the presence of 2.5% fetal bovine serum (FBS) and in the presence of Aplidine at final concentration of 0-100 nM or DMSO vehicle control. At the end of each treatment, cells were incubated with 1 mg/mL MTT for 4 hours at 37° C.; a mixture of isopropanol and 1 N HCl (23:2, vol/vol) was then added under vigorous pipetting to dissolve the formazan crystals. Dye absorbance (A) in viable cells was measured at 570 nm, with 630 nm as a reference wavelength. Cell viability was estimated as a percentage of the value of untreated controls. All experiments were repeated at least 3 times, and each experimental condition was repeated at least in triplicate wells in each experiment. Data reported are average values±SD of representative experiments. […]

Data set [9] has as its system colon tumor cells. The conditions noted are these: cited from earlier work.
The conditions of data set [10]: solubilised aplidine; cited from earlier work.
In data set [11] the test system is MM-1S human MM cells stably transfected with Bcl-2. Description: MTT survival assay, Bcl-2-transfected MM-1S cells. The conditions noted are these: Bcl-2-transfected MM-1S cells (FIG. 1). Format: cell-based. As to the method: as §1
Data set [12] deals with B16 melanoma. Particulars: murine tumors such as B16 melanoma; cited from earlier work.
Data set [13] deals with bladder carcinoma. The conditions noted are these: bladder carcinoma in the hollow fiber; cited from earlier work.
The subject of data set [14] is primary MM tumor cells. Description: MTT survival assay, combination with doxorubicin. Format: cell-based, human. The conditions noted are these: aplidine 2 nM with doxorubicin 10 ng/mL, primary MM tumor sample (FIG. 5).
The test system of data set [15] is primary MM tumor cells. Description: MTT survival assay, primary MM tumor cells. Format: cell-based, human. Particulars: 10 primary tumor specimens from multi-drug resistant MM patients; 20 nM for 48 hrs (FIG. 2). On the procedure:
as §1

The test system of data set [16] is breast MX-1. The conditions noted are these: mice bearing human xenografted tumors; cited from earlier work.
The subject of data set [17] is non-small-cell lung tumor cells. The conditions noted are these: cited from earlier work.
Data set [18] has as its system NCI human in vitro panel cell lines. Particulars: cited from earlier work.
Data set [19] relates to human MM cell lines. The data set can be described thus: MTT colorimetric survival assay, panel of MM cell lines. Format: cell-based. Particulars: for the overwhelming majority of the MM cell lines of the panel (FIG. 1), read-out: IC50 doses. On the procedure: as §1
The conditions of data set [20]: phase I/II trials; cited from earlier work.

The values that follow come from US7381703B2, “Aplidine for multiple myeloma treatment” (Dana-Faber Cancer Institute, Inc., priority 2003, dated 2008).

What is called IC50 is the midpoint of a concentration-inhibition curve.

Structures are written as SMILES. Numbered stars: 1 amine (or outer) side, 2 acyl side, 3 side chain; on linkers, the order of the positions; unused ones are H or OH. Bridge positions count the residues as written; N and C are the ends. Square brackets hold non-standard residues; d marks the D form. Peptide text beside a SMILES is read from it. * marks the point of attachment. X1 = CC[C@H](C)[C@@H](N[*:1])[C@@H](O)CC(=O)O[C@H](C(=O)[C@H](C)C(=O)[*:2])C(C)C; NMeY = CN[C@@H](Cc1ccc(O)cc1)C(=O)O; dNMeL = CN[C@H](CC(C)C)C(=O)O; Pyruvoyl = CC(=O)C(=O)*

As for `CC[C@H](C)[C@H]1NC(=O)[C@@H](NC(=O)[C@@H](CC(C)C)N(C)C(=O)[C@@H]2CCCN2C(=O)C(C)=O)[C@@H](C)OC(=O)[C@H](Cc2ccc(OC)cc2)N(C)C(=O)[C@@H]2CCCN2C(=O)[C@H](CC(C)C)NC(=O)[C@@H](C)C(=O)[C@H](C(C)C)OC(=O)C[C@@H]1O` [Aplidine, Dehydrodidemnin B] (Pyruvoyl-P[dNMeL]T[X1]LP[NMeY](Me); ester 3-C), in data set [1], the “growth inhibition of dexamethasone resistant MM1.R cells compared with MM1.S” value is “as effectively as the parenteral line (MM1.S)”. In addition, the in vivo activity entry was “confirm activity” in data set [2], “in vivo activity” in [12] and “confirm activity” in data set [16]. In data set [3], the “growth of Bcl-2 overexpressing MM cells” value is “inhibits growth”. Moreover, the “survival of BMSCs” value in data set [4] is recorded as “did not significantly affect”. The “VEGF secretion when MM cells are co-cultured with BMSCs” value in data set [5] (12-hour treatment, co-culture (FIG. 4B)) is “counteract the increase in VEGF secretion”. For the same compound, the “secretion of VEGF by MM cells” value in [5] (12-hour treatment, primary MM tumor cells (FIGS. 4A and 4B)) was “suppress the secretion of VEGF”. Moreover, the “VEGF secretion by BMSCs” value in data set [5] (12 hrs, BMSCs (FIG. 4B)) is listed as “suppresses the VEGF secretion”. The “in vivo antitumor activity” value in [6] and in data set [13] was “in vivo antitumor activity” in each case. The “effect of MM-BMSC interaction on in vitro anti-MM activity” value in [7] is on record as “did not significantly attenuate”. The “sensitivity to aplidine vs. empty-vector transfected cells” value in data set [8] and in data set [11] was “did not have lower sensitivity” each time. Further, the IC50 is 450 pM in data set [9], 180 pM in data set [17] and not above 10000 pM in [19]. Moreover, the “degradation under heat and light stress testing conditions” value in data set [10] was “substantial degradation”. Also, in data set [14], the “responsiveness of MM cells to doxorubicin in combination with Aplidine” value is recorded as “increased responsiveness to doxorubicin”. Moreover, the “in vitro anti-MM activity” value in data set [15] is recorded as “consistent with the results obtained from the testing of our cell line panel”. Moreover, the “selectivity in the NCI human in vitro panel” value in data set [18] was “selectivity for non-small-cell lung cancer (NSCLC), melanoma, ovarian and colorectal cancer cell lines”. The dose-limiting toxicity entry in data set [20] is reported as “muscular toxicity”. Further, the myelosuppression result in [20] was “remarkable lack of severe myelosuppression”.
